Experiments:
[1] = test system: tomato leaf transpiration; experiment: tomato leaf transpiration inhibition bioassay; assay type: in vivo, Tomato (variety: Rutgers)
From the text: The compositions of the present invention improve ABA effectiveness by incorporating a surfactant, and optionally a nitrogen-containing fertilizer together with an effective amount of the plant growth regulator abscisic acid (S-ABA; ABA; S-(+)-abscisic acid; +-ABA, (+)-(S)-cis, trans-abscisic acid, (+)-(S)-cis,trans-ABA; S-ABA; (S)-5-(1-hydroxy-2,6,6,-trimethyl-4-oxo-2-cyclohexen-1-yl)-3-methyl-(2Z,4E)-pentadienoic acid; CAS registry no, [21293-29-8]). ABA effectiveness may be measured experimentally by quantifying the inhibition of transpiration in tomato leaves. This is a reliable laboratory bioassay of the level of ABA activity.
Preparation of plant specimens for use in the treatment studies of the examples described was carried out as follows. Tomato (variety: Rutgers) seeds were sown in an 18-cell flat filled with Promix PGX (available from Premier Horticulture Inc. Quakertown, Pa.) and grown for 3 weeks to allow for germination and initial growth. Plants were then transplanted into pots (18 cm in diameter and 18 cm in height), filled with Promix BX (available from Premier Horticulture Inc. Quakertown, Pa.), and grown for one or two more weeks before treatment, depending on temperature and available light. Plants received daily irrigation and weekly fertilizer (1 g/L all purpose fertilizer 20-20-20, available from The Scotts Company, Marysville, Ohio).
All treatment solutions were prepared with distilled water, ABA (95% active ingredient) is available from Lomon BioTechnology Co., Ltd. (Shichuan, China). […]
Unless otherwise specified, when a surfactant was employed, it was incorporated into the 250-ppm ABA treatment solution at a concentration of 0.05% to 0.5% (v/v).
ABA solutions and blank treatments were applied to the aerial parts of tomato plant leaves at the rate of 20 mL per 6 plants. Plants were then placed in a transparent chamber with humidity controlled within the range of 40 to 60% relative humidity. Leaf transpiration rates were measured at 1, 2 and 3 days; at 1, 2, 3 and 4 days; or at 1, 2, 3, 4 and 7 days after treatment. Measurements were conducted using a LI-1600 Steady State Porameter (LI-Cor, Lincoln, Nebr.). Each day the transpiration rate of the plants of each treatment group was normalized to the percentage of the transpiration rate of untreated plants (plants sprayed with water only) in order to control for day-to-day variability caused by changes of environmental conditions such as light intensity and temperature. In some cases, data of each plant was averaged over a 3-day period to balance the short term and long-term effect of ABA on tomato leaf transpiration as well as to control for experimental variability.
(§1) All experiments were conducted using a randomized complete block experimental design. Data were analyzed by analysis of variance. Duncan's new multiple range tests at α-005 were used for mean separations.

Crimson seedless grapes [2] = experiment: grape coloring field study, ABA with or without Brij 98; assay type: in vivo; conditions: for Harvest yield (%): harvest at 64 days after treatment, yield percent with sufficient color
Protocol: A grape coloring field study was conducted at Caruthers, Calif. ABA alone at 100 or 200 ppm or its combination with 0.05% Brij 98 was foliar applied to Crimson seedless grapes. Number of clusters with color was counted on a weekly basis, beginning at 21 days after treatment. Percentage of clusters with color was calculated. Grape yield was harvested at 64 days after treatment.
as §1
The effect of 0.05% Brij 98 on ABA (100 or 200 ppm) performance in grape coloration was examined in the field (Table 12). Addition of Brij 98 increased the percent of clusters with color for ABA at 100 or 200 ppm after application and increased the harvest yield percent with sufficient color. Treatment with 200 ppm ABA had more colored clusters and yield.

Crimson seedless grapes [3] = experiment: grape coloring field study, ABA with or without Latron B-1956; assay type: in vivo; conditions: for Harvest yield (%): harvest at 64 days after treatment, yield percent with sufficient color
Protocol: A grape coloring field study was conducted at Caruthers, Calif., ABA alone at 100 or 200 ppm or its combination with 0.05% Latron B-1956 was foliar applied to Crimson seedless grapes. Number of clusters, with color was counted on a weekly basis, beginning at 21 days after treatment. Percentage of clusters with color was calculated. Grape yield was harvested at 64 days after treatment.
as §1
The effect of 0.05% Latron B-1956 on ABA (100 or 200 ppm) performance in grape coloration was examined (Table 15). Addition of Latron B-1956 increased the percent clusters with color for ABA at 100 or 200 ppm after application and increased the harvest yield percent with sufficient color. ABA at 200 ppm with or without Latron 13-1956 had more color and greater yield than at 100 ppm.

[4] = 100 ppm ABA foliar applied, 21 days after application
[5] = 100 ppm ABA foliar applied, 27 days after application
[6] = 100 ppm ABA foliar applied, 35 days after application
[7] = 100 ppm ABA foliar applied, 43 days after application
[8] = 100 ppm ABA foliar applied, 50 days after application
[9] = 100 ppm ABA foliar applied, 56 days after application
[10] = 100 ppm ABA foliar applied, 62 days after application
[11] = 100 ppm ABA foliar applied, 64 days after application
[12] = 200 ppm ABA foliar applied, 21 days after application
[13] = 200 ppm ABA foliar applied, 27 days after application
[14] = 200 ppm ABA foliar applied, 35 days after application
[15] = 200 ppm ABA foliar applied, 43 days after application
[16] = 200 ppm ABA foliar applied, 50 days after application
[17] = 200 ppm ABA foliar applied, 56 days after application
[18] = 200 ppm ABA foliar applied, 62 days after application
[19] = 200 ppm ABA foliar applied, 64 days after application

## (S)-5-(1-hydroxy-2,6,6,-trimethyl-4-oxo-2-cyclohexen-1-yl)-3-methyl-(2Z,4E)-pentadienoic acid [ABA]
[1]; 125 ppm ABA, average of first 3 days after treatment
  Transpiration rate (% of control): 96 % of control
[1]; 250 ppm ABA or ABA ammonium salt, 1 day after treatment (Table 7)
  Transpiration rate (% of control): 73 % of control
[1]; 250 ppm ABA or ABA ammonium salt, 2 days after treatment (Table 7)
  Transpiration rate (% of control): 76 % of control
[1]; 250 ppm ABA or ABA ammonium salt, 3 days after treatment (Table 7)
  Transpiration rate (% of control): 94 % of control
[1]; 250 ppm ABA or ABA ammonium salt, average of days 1-3 after treatment (Table 7)
  Transpiration rate (% of control), Average: 81 % of control
[1]; 250 ppm ABA or salt at rate equivalent to 250 ppm ABA, 1 day after treatment (Table 8)
  Transpiration rate (% of control): 71 % of control
[1]; 250 ppm ABA or salt at rate equivalent to 250 ppm ABA, 2 days after treatment (Table 8)
  Transpiration rate (% of control): 75 % of control
[1]; 250 ppm ABA or salt at rate equivalent to 250 ppm ABA, 3 days after treatment (Table 8)
  Transpiration rate (% of control): 88 % of control
[1]; 250 ppm ABA or salt at rate equivalent to 250 ppm ABA, average of days 1-3 (Table 8)
  Transpiration rate (% of control), Average: 78 % of control
[1]; 250 ppm ABA or salt at rates equivalent to 250 ppm ABA, 1 day after treatment (Table 10)
  Transpiration rate (% of control): 59 % of control
[1]; 250 ppm ABA or salt at rates equivalent to 250 ppm ABA, 2 days after treatment (Table 10)
  Transpiration rate (% of control): 71 % of control
[1]; 250 ppm ABA or salt at rates equivalent to 250 ppm ABA, 3 days after treatment (Table 10)
  Transpiration rate (% of control): 77 % of control
[1]; 250 ppm ABA or salt at rates equivalent to 250 ppm ABA, average of days 1-3 (Table 10)
  Transpiration rate (% of control), Average: 69 % of control
[1]; 250 ppm ABA, 1 day after treatment (Table 2)
  Transpiration rate (% of control): 76 % of control
[1]; 250 ppm ABA, 1 day after treatment (Table 5)
  Transpiration rate (% of control): 82 % of control
[1]; 250 ppm ABA, 1 day after treatment (Table 6)
  Transpiration rate (% of control): 71 % of control
[1]; 250 ppm ABA, 1 day after treatment (Table 11)
  Transpiration rate (% of control): 83 % of control
[1]; 250 ppm ABA, 1 day after treatment (Table 13)
  Transpiration rate (% of control): 74 % of control
[1]; 250 ppm ABA, 1 day after treatment (Table 14)
  Transpiration rate (% of control): 74 % of control
[1]; 250 ppm ABA, 2 days after treatment (Table 2)
  Transpiration rate (% of control): 99 % of control
[1]; 250 ppm ABA, 2 days after treatment (Table 5)
  Transpiration rate (% of control): 91 % of control
[1]; 250 ppm ABA, 2 days after treatment (Table 6)
  Transpiration rate (% of control): 84 % of control
[1]; 250 ppm ABA, 2 days after treatment (Table 11)
  Transpiration rate (% of control): 85 % of control
[1]; 250 ppm ABA, 2 days after treatment (Table 14)
  Transpiration rate (% of control): 82 % of control
[1]; 250 ppm ABA, 3 days after treatment (Table 2)
  Transpiration rate (% of control): 93 % of control
[1]; 250 ppm ABA, 3 days after treatment (Table 5)
  Transpiration rate (% of control): 90 % of control
[1]; 250 ppm ABA, 3 days after treatment (Table 6)
  Transpiration rate (% of control): 86 % of control
[1]; 250 ppm ABA, 3 days after treatment (Table 11)
  Transpiration rate (% of control): 94 % of control
[1]; 250 ppm ABA, 3 days after treatment (Table 13)
  Transpiration rate (% of control): 95 % of control
[1]; 250 ppm ABA, 3 days after treatment (Table 14)
  Transpiration rate (% of control): 95 % of control
[1]; 250 ppm ABA, 4 days after treatment (Table 5)
  Transpiration rate (% of control): 100 % of control
[1]; 250 ppm ABA, 4 days after treatment (Table 6)
  Transpiration rate (% of control): 90 % of control
[1]; 250 ppm ABA, 4 days after treatment (Table 13)
  Transpiration rate (% of control): 100 % of control
[1]; 250 ppm ABA, 4 days after treatment (Table 14)
  Transpiration rate (% of control): 100 % of control
[1]; 250 ppm ABA, average of days 1-3 (Table 11)
  Transpiration rate (% of control), Average: 87 % of control
[1]; 250 ppm ABA, average of first 3 days after treatment (Table 1)
  Transpiration rate (% of control): 88 % of control
[1]; 250 ppm ABA, average of first 3 days after treatment (Table 3)
  Transpiration rate (% of control): 83 % of control
[1]; 250 ppm ABA, average of first 3 days after treatment (Table 4)
  Transpiration rate (% of control): 96.32 % of control
[1]; 250 ppm ABA, average of first 3 days after treatment (Table 9)
  Transpiration rate (% of control): 73 % of control
[1]; 500 ppm ABA, average of first 3 days after treatment
  Transpiration rate (% of control): 74 % of control
[1]; 1000 ppm ABA, average of first 3 days after treatment
  Transpiration rate (% of control): 68 % of control
[1]; calculated from linear regression of relative transpiration (3-day average) on log10 ABA concentration
  ABA concentrations to achieve 50% inhibition of transpiration: 3328 ppm
Crimson seedless grapes [2]; [4]
  % clusters with color: 1.8%
Crimson seedless grapes [2]; [5]
  % clusters with color: 2.7%
Crimson seedless grapes [2]; [6]
  % clusters with color: 5.7%
Crimson seedless grapes [2]; [7]
  % clusters with color: 7.5%
Crimson seedless grapes [2]; [8]
  % clusters with color: 9.4%
Crimson seedless grapes [2]; [9]
  % clusters with color: 26.1%
Crimson seedless grapes [2]; [10]
  % clusters with color: 26.2%
Crimson seedless grapes [2]; [11]
  % clusters with color: 31.2%
Crimson seedless grapes [2]; 100 ppm ABA foliar applied
  Harvest yield (%): 25.5%
Crimson seedless grapes [2]; [12]
  % clusters with color: 7.0%
Crimson seedless grapes [2]; [13]
  % clusters with color: 10.7%
Crimson seedless grapes [2]; [14]
  % clusters with color: 17.3%
Crimson seedless grapes [2]; [15]
  % clusters with color: 20.5%
Crimson seedless grapes [2]; [16]
  % clusters with color: 22.7%
Crimson seedless grapes [2]; [17]
  % clusters with color: 47.9%
Crimson seedless grapes [2]; [18]
  % clusters with color: 50.3%
Crimson seedless grapes [2]; [19]
  % clusters with color: 56.4%
Crimson seedless grapes [2]; 200 ppm ABA foliar applied
  Harvest yield (%): 49.1%
Crimson seedless grapes [3]; [4]
  % clusters with color: 1.8%
Crimson seedless grapes [3]; [5]
  % clusters with color: 2.7%
Crimson seedless grapes [3]; [6]
  % clusters with color: 5.7%
Crimson seedless grapes [3]; [7]
  % clusters with color: 7.5%
Crimson seedless grapes [3]; [8]
  % clusters with color: 9.4%
Crimson seedless grapes [3]; [9]
  % clusters with color: 26.1%
Crimson seedless grapes [3]; [10]
  % clusters with color: 26.2%
Crimson seedless grapes [3]; [11]
  % clusters with color: 31.2%
Crimson seedless grapes [3]; 100 ppm ABA foliar applied
  Harvest yield (%): 25.5%
Crimson seedless grapes [3]; [12]
  % clusters with color: 7.0%
Crimson seedless grapes [3]; [13]
  % clusters with color: 10.7%
Crimson seedless grapes [3]; [14]
  % clusters with color: 17.3%
Crimson seedless grapes [3]; [15]
  % clusters with color: 20.5%
Crimson seedless grapes [3]; [16]
  % clusters with color: 22.7%
Crimson seedless grapes [3]; [17]
  % clusters with color: 47.9%
Crimson seedless grapes [3]; [18]
  % clusters with color: 50.3%
Crimson seedless grapes [3]; [19]
  % clusters with color: 56.4%
Crimson seedless grapes [3]; 200 ppm ABA foliar applied
  Harvest yield (%): 49.1%

From US20130123107A1, “Use of Adjuvants to Improve Abscisic Acid Performance” (Valent BioSciences Corporation, priority 2007, published 2013)
